PMC10054553, “Development of the First ^18F-Labeled Radiohybrid-Based Minigastrin Derivative with High Target Affinity and Tumor Accumulation by Substitution of the Chelating Moiety” (Pharmaceutics, 2023)
Where two headings read alike, the source gives them in different places. One block for each molecule: values may come before it.

Assays:
CCK-2R = molecular target: T1, CCK-2R (Rattus norvegicus, UniProt P30553); parameters: method as in earlier work; details: natLu-labeled peptide; AR42J cells, [177Lu]Lu-DOTA-PP-F11N 0.3 pmol/well, 3 h, 37 °C, n = 3; identical conditions; cited from earlier work
T1 construct: CCK-2R-expressing rat pancreatic cancer cells AR42J; host or cells: AR42J (rat pancreatic cancer cells)
T1 sequence (P30553 1-452): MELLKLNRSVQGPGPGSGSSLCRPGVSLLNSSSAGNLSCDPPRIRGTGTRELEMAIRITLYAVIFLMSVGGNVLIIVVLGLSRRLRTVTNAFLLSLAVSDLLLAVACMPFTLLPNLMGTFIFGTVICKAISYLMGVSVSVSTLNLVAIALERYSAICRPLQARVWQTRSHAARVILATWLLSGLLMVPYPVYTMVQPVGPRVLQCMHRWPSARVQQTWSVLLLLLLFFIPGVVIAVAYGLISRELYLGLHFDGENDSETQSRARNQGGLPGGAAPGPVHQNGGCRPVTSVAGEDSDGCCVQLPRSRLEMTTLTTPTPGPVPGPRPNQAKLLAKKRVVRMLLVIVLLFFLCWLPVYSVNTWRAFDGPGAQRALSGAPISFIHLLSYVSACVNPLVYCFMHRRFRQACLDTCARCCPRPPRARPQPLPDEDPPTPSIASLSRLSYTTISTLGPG

[1] = µPET/CT imaging in an AR42J tumor-bearing mouse; assay type: in vivo, mice; details: 100 pmol, n = 1
Description: Biodistribution studies (n = 4) and µSPECT/CT as well as µPET/CT imaging (using a MILabs VECTor^4 small-animal SPECT/PET/OI/CT device, MILabs, Utrecht, The Netherlands) at 1 and 24 h p.i. were carried out as previously published. For all ^177Lu-labeled compounds, approximately 2–3 MBq (100 pmol)—and for the ^18F-labeled analog, approximately 7 MBq (100 pmol)—were administered. For all competition studies, 2.90 mg/kg (40 nmol) of [^natLu]Lu-DOTA-MGS5 (10^−3 M in phosphate-buffered saline) were co-administered.
Moreover, the chemically identical compound, [^18F]F-[^natLu]Lu-DOTA-rhCCK-18, was evaluated via µPET/CT in a AR42J tumor-bearing mouse (n = 1), which confirmed high tumor and kidney uptake at 1 h p.i. and low overall off-target accumulation (Figure 5, right).
Figure 5 Representative µSPECT/CT images of [^177Lu]Lu-DOTA-rhCCK-18 at 1 and 24 h p.i. (left) and µPET/CT image of [^18F]F-[^natLu]Lu-DOTA-rhCCK-18 at 1 h p.i. (right) in AR42J tumor-bearing CB17- SCID mice (100 pmol each). Tumors (T) are indicated by white arrows. Kidney (K) and tumor (T) values are depicted at the bottom. TEXT PRINTED IN THE PICTURE: [^177Lu]Lu-DOTA-rhCCK-18: T: 24.1 %ID/g (1 h p.i.); K: 97.2 %ID/g (1 h p.i.); T: 25.4 %ID/g (24 h p.i.); K: 134 %ID/g (24 h p.i.) | [^18F]F-[^natLu]Lu-DOTA-rhCCK-18: T: 31.2 %ID/g (1 h p.i.); K: 146 %ID/g (1 h p.i.)

[2] = Lipophilicity (logD7.4), n-octanol/PBS pH 7.4; assay type: physicochemical
Description: Cell-based experiments and determination of lipophilicity (logD7.4) were performed as previously published. A detailed description of the in vitro experiments is provided in the Supplementary Materials.
Cell Culture. CCK-2R-expressing rat pancreatic cancer cells AR42J (CLS GmbH, Eppelheim, Germany) were cultivated in monolayers in CELLSTAR® cell culture flasks acquired from Greiner Bio-One GmbH (Frickenhausen, Germany) at 37°C in a humidified atmosphere (5% CO2) using a HERAcell 150i-Incubator (Thermo Fisher Scientific Inc., Waltham, United States). The nutrient medium RPMI 1640 medium, supplemented with 5 mM L-Gln 5 mL non-essential amino acids (100×) and 10% FCS, was used. Furthermore, a Dulbecco’s PBS solution with 0.1% EDTA (v/v) was applied to detach the cells for cell passaging. The detached cells were counted using a Neubauer hemocytometer (Paul Marienfeld, Lauda-Königshofen, Germany). In addition, all operations under sterile conditions were accomplished using a MSC-Advantage safety workbench (Thermo Fisher Scientific Inc., Waltham, United States).
Determination of IC50. AR42J cells (2.0 × 10^5 cells/well) were seeded into 24-well plates 24 ± 2 h prior to testing using 1 mL of nutrient medium (RPMI 1640, 5 mM L-Gln, 5 mL non-essential amino acids (100×), 10% FCS). Cells were incubated at 37°C in a humidified atmosphere (5% CO2).
After the removal of the medium, each well was washed with 500 μL PBS. For the cell-based assay, 200 μL of the nutrient medium (+5% BSA), [ 177Lu]Lu-DOTA-PP-F11N (25 μL, 0.3 pmol) as a radiolabeled reference and 25 μL of the peptide of interest in increasing concentrations (10 −10 to 10−4 M) were added to the cells in triplicate. Thereafter, the assay was incubated for 3 h at 37°C and the supernatant was collected. The cells were washed with 300 μL PBS and the collected supernatant fractions were unified.
After lysis of the cells with NaOH (300 μL, 1 N) for 15 min, the respective wells were washed with NaOH (300 μ L, 1 N) and both fractions were unified. The radioactivity of both the supernatant and the lysed fractions were quantified using a γ-counter (PerkinElmer Inc., Waltham, United States). The obtained data were evaluated via the GraphPad PRISM software (GraphPad Software Inc., La Jolla, United States), which calculates the half-maximal inhibitory concentration (IC50) of the peptides.
Internalization Studies. For the determination of the internalization kinetics of the various peptides, AR42J cells (3.0 × 10^5 cells/well) were seeded into polylysine-coated 24-well plates, adding 1 mL of nutrient medium. Afterwards, the cells were incubated for 24 ± 2 h at 37°C in a humidified atmosphere […]
On the day of the experiment, the medium was removed, and each well was washed with nutrient medium (300 μL). Afterwards 200 μL of nutrient medium, 25 μL of the 177Lu-labeled peptide (0.3 pmol, n = 6) and either 25 μL of nutrient medium for internalization studies ( n = 3) or 25 μL of [natLu]Lu-DOTA-PP-F11N (10 μmol) for competition studies ( n = 3) were added. Thereafter, the assay was incubated for various time points (1, 2, 4 and 6 h) at 37°C in a humidified atmosphere (5% CO2). After incubation, the cells were put on ice for at least 1 min to stop internalization kinetics and the supernatant was collected. Then, the cells were washed with an ice-cold nutrient medium (300 μL) and both fractions were unified. […] The radioactivity of the supernatant, the acid wash and the lysed fractions were quantified using a γ-counter. […]

[3] = Stability studies in human serum; assay type: in vitro ADME; details: 37 °C; for SiOH-containing analog (%): 24 h, n = 3, analog with hydrolyzed SiFA moiety; for remaining at 24 h, 5 µM: human, n = 3, read-out: Intact peptide (%)
Description: In vitro stability studies in human serum after incubation at 37 °C for 24 h were performed as described in the Supplemental Material.
Stability Studies in Human Serum. The 177Lu- as well as 67Ga-labeled CCK-2R ligands (1 nmol,
approx. 5 MBq) were incubated for 24 h in human serum (200 μL) at 37 °C. After incubation, ice-cold
EtOH (125 μL) and MeCN (375 μL) were added and the suspension was centrifuged for 5 min at
5000 rpm. Then, the supernatant was transferred into new vials and centrifuged for another 5 min at
5000 rpm. After separating the precipitate from the solution, the stability of the ligands was determined

SMILES: CCCC[C@H](NC(=O)[C@H](Cc1c[nH]c2ccccc12)NC(=O)CNC(=O)[C@H](Cc1ccc(O)cc1)NC(=O)[C@H](C)NC(=O)CC[C@@H](NC(=O)CC[C@@H](NC(=O)CC[C@@H](NC(=O)CC[C@@H](NC(=O)CC[C@@H](NC(=O)CC[C@@H](NC(=O)CC[C@@H](NC(=O)CC[C@@H](NC(=O)[C@@H](CNC(=O)c1ccc([Si](F)(C(C)(C)C)C(C)(C)C)cc1)NC(=O)CC[C@H](C(=O)O)N1CCN(CC(=O)O)CCN(CC(=O)O)CCN(CC(=O)O)CC1)C(=O)O)C(=O)O)C(=O)O)C(=O)O)C(=O)O)C(=O)O)C(=O)O)C(=O)O)C(=O)N[C@@H](CC(=O)O)C(=O)N[C@@H](Cc1ccccc1)C(N)=O [(R)-DOTAGA-rhCCK-18]
IC50 (CCK-2R): 20.4 ± 2 nM

SMILES: CCCC[C@H](NC(=O)[C@H](Cc1c[nH]c2ccccc12)NC(=O)CNC(=O)[C@H](Cc1ccc(O)cc1)NC(=O)[C@H](C)NC(=O)CC[C@@H](NC(=O)CC[C@@H](NC(=O)CC[C@@H](NC(=O)CC[C@@H](NC(=O)CC[C@@H](NC(=O)CC[C@@H](NC(=O)CC[C@@H](NC(=O)CC[C@@H](NC(=O)[C@@H](CNC(=O)c1ccc([Si](F)(C(C)(C)C)C(C)(C)C)cc1)NC(=O)CN1CCN(CC(=O)O)CCN(CC(=O)O)CCN(CC(=O)O)CC1)C(=O)O)C(=O)O)C(=O)O)C(=O)O)C(=O)O)C(=O)O)C(=O)O)C(=O)O)C(=O)N[C@@H](CC(=O)O)C(=O)N[C@@H](Cc1ccccc1)C(N)=O [[^18F]F-[^natLu]Lu-DOTA-rhCCK-18, metal not drawn]
tissue uptake at 1 h ([1]; CB17-SCID, mouse, kidney, total radioactivity, 1 h p.i., read-out: Kidney (K) value, µPET/CT): 146 %ID/g | tissue uptake at 1 h ([1]; CB17-SCID, mouse, tumor, total radioactivity, 1 h p.i., read-out: Tumor (T) value, µPET/CT): 31.2 %ID/g | tissue uptake at 1 h ([1]; bone, µPET/CT mouse, read-out: bone uptake): 1.69 %ID/g

SMILES: CCCC[C@H](NC(=O)[C@H](Cc1c[nH]c2ccccc12)NC(=O)CNC(=O)[C@H](Cc1ccc(O)cc1)NC(=O)[C@H](C)NC(=O)CC[C@@H](NC(=O)CC[C@@H](NC(=O)CC[C@@H](NC(=O)CC[C@@H](NC(=O)CC[C@@H](NC(=O)CC[C@@H](NC(=O)CC[C@@H](NC(=O)CC[C@@H](NC(=O)[C@@H](CNC(=O)c1ccc([Si](F)(C(C)(C)C)C(C)(C)C)cc1)NC(=O)CN1CCN(CC(=O)O)CCN(CC(=O)O)CCN(CC(=O)O)CC1)C(=O)O)C(=O)O)C(=O)O)C(=O)O)C(=O)O)C(=O)O)C(=O)O)C(=O)O)C(=O)N[C@@H](CC(=O)O)C(=O)N[C@@H](Cc1ccccc1)C(N)=O [[^18F]F-[^natLu]Lu-DOTA-rhCCK-18] [metal not drawn]
logD7.4 ([2]; n-octanol/PBS pH 7.4): −2.71 ± 0.04

SMILES: CCCC[C@H](NC(=O)[C@H](Cc1c[nH]c2ccccc12)NC(=O)CNC(=O)[C@H](Cc1ccc(O)cc1)NC(=O)[C@H](C)NC(=O)CC[C@@H](NC(=O)CC[C@@H](NC(=O)CC[C@@H](NC(=O)CC[C@@H](NC(=O)CC[C@@H](NC(=O)CC[C@@H](NC(=O)[C@@H](CNC(=O)c1ccc([Si](F)(C(C)(C)C)C(C)(C)C)cc1)NC(=O)CN1CCN(CC(=O)O)CCN(CC(=O)O)CCN(CC(=O)O)CC1)C(=O)O)C(=O)O)C(=O)O)C(=O)O)C(=O)O)C(=O)O)C(=O)N[C@@H](CC(=O)O)C(=O)N[C@@H](Cc1ccccc1)C(N)=O [[^67Ga]Ga-DOTA-rhCCK-16, metal not drawn]
SiOH-containing analog (%) ([3]; listed as [67Ga]Ga-DOTA-rhCCK-16): 56.5 ± 8.0% | remaining at 24 h, 5 µM [3]: 39.6 ± 7.9%

SMILES: CCCC[C@H](NC(=O)[C@H](Cc1c[nH]c2ccccc12)NC(=O)CNC(=O)[C@H](Cc1ccc(O)cc1)NC(=O)[C@H](C)NC(=O)CC[C@@H](NC(=O)CC[C@@H](NC(=O)CC[C@@H](NC(=O)CC[C@@H](NC(=O)CC[C@@H](NC(=O)CC[C@@H](NC(=O)CC[C@@H](NC(=O)CC[C@@H](NC(=O)[C@@H](CNC(=O)c1ccc([Si](F)(C(C)(C)C)C(C)(C)C)cc1)NC(=O)CN1CCN(CC(=O)O)CCN(CC(=O)O)CCN(CC(=O)O)CC1)C(=O)O)C(=O)O)C(=O)O)C(=O)O)C(=O)O)C(=O)O)C(=O)O)C(=O)O)C(=O)N[C@@H](CC(=O)O)C(=O)N[C@@H](Cc1ccccc1)C(N)=O [[^67Ga]Ga-DOTA-rhCCK-18, metal not drawn]
SiOH-containing analog (%) [3]: 53.6 ± 6.6% | remaining at 24 h, 5 µM [3]: 43.7 ± 6.9%

logD ([2]; pH 7.4): -3.95 ± 0.06
SMILES: CCCC[C@H](NC(=O)[C@H](Cc1c[nH]c2ccccc12)NC(=O)CNC(=O)[C@H](Cc1ccc(O)cc1)NC(=O)[C@H](C)NC(=O)[C@@H](CCC(=O)O)NC(=O)[C@@H](CCC(=O)O)NC(=O)[C@@H](CCC(=O)O)NC(=O)[C@@H](CCC(=O)O)NC(=O)[C@@H](CCC(=O)O)NC(=O)[C@@H](CCC(=O)O)NC(=O)CC[C@H](C(=O)O)N1CCN(CC(=O)O)CCN(CC(=O)O)CCN(CC(=O)O)CC1)C(=O)N[C@@H](CC(=O)O)C(=O)N[C@@H](Cc1ccccc1)C(N)=O [[^177Lu]Lu-(R)-DOTAGA-PP-F11N, metal not drawn]
